Assay results as given in patent US12144811B2, “Combination of a 4-pyrimidinesulfamide derivative with an SGLT-2 inhibitor for the treatment of endothelin related diseases” (IDORSIA PHARMACEUTICALS LTD, priority 2017, dated 2024).

Tests used:
[1] = test system: conscious, male hypertensive deoxycorticosterone acetate salt rats; experiment: Acute effects on MAP and HR by telemetry in DOCA-salt rats; format: in vivo, rat
From the text: The acute effects of ACT-132577 on blood pressure, in particular on mean arterial blood pressure (hereafter “MAP”), and heart rate (hereafter “HR”) can be evaluated by means of telemetry in conscious, male hypertensive deoxycorticosterone acetate salt rats (hereafter “DOCA-salt rats”—see details about this model in Gavras et al., Circ. Res. (1975), 36, 300-309). In the DOCA-salt rats, hypertension is induced by the combination of unilateral nephrectomy, implantation of pellets of the mineralocorticoid analog DOCA, and provision of 1% sodium chloride in drinking water. Groups of 6-11 DOCA-salt rats are used for the vehicle (7.5% gelatin aqeuous solution) and each dose of ACT-132577 tested (0.3, 1, 3, 10, 30, 100, and 300 mg/kg). Effects of ACT-132577 on HR and MAP are calculated for individual animals relative to the 24 h period before administering. The results obtained regarding MAP (maximal MAP decrease observed over 6 consecutive hours) are summarised in FIG. 4 (data are presented as mean±standard error of the mean). […] In contrast to MAP, HR was not affected.

[2] = test system: conscious, male spontaneaously hypertensive rats; experiment: Acute effects on MAP and HR by telemetry in SHRs; format: in vivo, rat
Method: The acute effects of ACT-132577 on blood pressure, in particular on mean arterial blood pressure (hereafter “MAP”), and heart rate (hereafter “HR”) can be evaluated by means of telemetry in conscious, male spontaneaously hypertensive rats (hereafter “SHRs”—see details about this model in Atanur et al., Genome Res. (2010), 20, 791-803). Groups of 4-6 SHRs are used for the vehicle (7.5% gelatin aqeuous solution) and each dose of ACT-132577 tested (1, 3, 10, 30, 100, and 300 mg/kg). Effects of ACT-132577 on HR and MAP are calculated for individual animals relative to the 24 h period before administering. The results obtained regarding MAP (maximal MAP decrease observed over 6 consecutive hours) are summarised in FIG. 5 (data are presented as mean±standard error of the mean). […] In contrast to MAP, HR was not affected.

[3] = in comparison to corresponding alkylated derivatives; cited from earlier work
[4] = test system: Spontaneously hypertensive rats (SHR); experiment: Blood pressure by telemetry in SHR, SGLT-2 inhibitor alone or in combination with ACT-132577; format: in vivo, rat; details: for Maximal effect on MAP of SGLT2 inhibitor alone: 30 mg/kg/day by gavage
From the text: Spontaneously hypertensive rats (SHR) are instrumented micro-surgically with a telemetry pressure transmitter implanted in the peritoneal cavity (Data Science International, Minnesota, USA) under isoflurane-induced narcosis. In brief, the pressure catheter is inserted into the aorta, below the renal artery pointing upstream. The abdomen is closed and the transmitter sutured to the abdominal musculature. Blood pressure is collected continuously using the Dataquest ART Platinum acquisition system (version 4.36). Drugs (ACT-132577 or SGLT2 inhibitors) or vehicle are administered by gavage (n=4-7 per group) alone or in combination. Systolic, mean and diastolic arterial pressures, and heart rate are collected at 5-minute intervals until the blood pressure curve comes back to baseline.
Because it takes several days for the SGLT2 inhibitors to exert an effect on blood pressure, rats are treated first for 12 days with either vehicle (5 ml/kg/day), or canagliflozin (30 mg/kg/day) or empagliflozin (30 mg/kg/day), then ACT-132577 (30 mg/kg/day) is co-administered for 3 additional days.

[5] = test system: conscious, male hypertensive Dahl salt-sensitive rats; experiment: Acute effects on MAP and HR by telemetry in Dahl salt-sensitive rats; format: in vivo, rat; details: Dahl-S rats
From the text: The acute effects of ACT-132577 on blood pressure, in particular on mean arterial blood pressure (hereafter “MAP”), and heart rate (hereafter “HR”) can be evaluated by means of telemetry in conscious, male hypertensive Dahl salt-sensitive rats (hereafter “Dahl-S rats”—see details about this model in Rapp, Hypertension (1982), 4, 753-763). Elevated blood pressure is induced in Dahl-S rats by providing 1% sodium chloride in drinking water. Groups of 6-7 Dahl-S rats are used for the vehicle (7.5% gelatin aqeuous solution) and each dose of ACT-132577 tested (0.3, 1, 3, 10, 30, 100, and 300 mg/kg). Effects of ACT-132577 on HR and MAP are calculated for individual animals relative to the 24 h period before administering. The results obtained regarding MAP (maximal MAP decrease observed over 6 consecutive hours) are summarised in FIG. 3 (data are presented as mean±standard error of the mean). […] In contrast to MAP, HR was not affected.

[6] = test system: conscious, male hypertensive deoxycorticosterone acetate salt rats; experiment: Acute effects of Exforge HCT alone or with ACT-132577 or spironolactone in DOCA-salt rats; format: in vivo, rat; details: for Blood pressure when added on top of Exforge HCT: aprocitentan 10 mg/kg or spironolactone 300 mg/kg, single oral doses
From the text: Res. (1975), 36, 300-309). In the DOCA-salt rats, hypertension is induced by the combination of unilateral nephrectomy, implantation of pellets of the mineralocorticoid analog DOCA, and provision of 1% sodium chloride in drinking water. 7-9 DOCA-salt rats per treatment group are used for this test. The results obtained regarding MAP are summarised in FIGS. 17 and 18 wherein each data point is presented as a 6-hour mean.

[7] = test system: conscious, male spontaneaously hypertensive rats; experiment: Acute effects of Exforge HCT alone or with ACT-132577 or spironolactone in SHRs; format: in vivo, rat; details: for Blood pressure when added on top of Exforge HCT: aprocitentan 100 mg/kg or spironolactone 300 mg/kg oral
Method: The acute effects of Exforge HCT® (i.e. a fixed dose combination of valsartan/amlodipine/hydrochlorothiazide; dosage adapted for 1.6 mg/kg/0.1 mg/kg/0.25 mg/kg for valsartan/amlodipine/hydrochlorothiazide, respectively) on blood pressure, in particular on mean arterial blood pressure (hereafter “MAP”), and heart rate (hereafter “HR”) in combination with ACT-132577 or spironolactone can be evaluated by means of telemetry in conscious, male spontaneaously hypertensive rats (hereafter “SHRs”—see details about this model in Atanur et al., Genome Res. (2010), 20, 791-803).
9 SHRs per treatment group are used for this test. To match the maximal effect on blood pressure of co-administereds drug in this model, aprocitentan 100 mg/kg is administrated orally on the 3rd day following 3-day oral administration of Exforge HCT® mg/kg and spironolactone 300 mg/kg is co-administered orally with Exforge HCT® on the 1st day followed by 2 days of Exforge HCT® administration. The results obtained regarding MAP are summarised in FIGS. 15 and 16 wherein each data point is presented as a 6-hour mean.

[8] = test system: male Wistar rats; experiment: Effect on fluid retention: haematocrit in Wistar rats; format: in vivo, rat; details: single oral dose 1-30 mg/kg, 24 hours after administration
Method: A decrease in haematocrit (Hct) or haemoglobin occurs secondary to an increase in plasma volume and can be used as a marker of fluid retention. A single oral dose of ACT 132577 (1-30 mg/kg) or vehicle (gelatin) is administered by gavage to male Wistar rats. Twenty-four hours after administration, sublingual blood was sampled under isoflurane-induced anesthesia. Haematocrit is measured using a hematology analyser.

[9] = test system: conscious, male hypertensive deoxycorticosterone acetate salt rats; experiment: Chronic effects of ACT-132577 in DOCA-salt rats; format: in vivo, rat
From the text: Res. (1975), 36, 300-309). In the DOCA-salt rats, hypertension is induced by the combination of unilateral nephrectomy, implantation of pellets of the mineralocorticoid analog DOCA, and provision of 1% sodium chloride in drinking water. The results of the DOCA-salt rats treated with ACT-132577 can be compared to those obtained for Wistar rats or for DOCA-salt rats that received only the vehicle (4% gelatin aqueous solution).

[10] = test system: patients with type 2 diabetes; details: overt diabetic nephropathy; cited from earlier work
[11] = Hygroscopicity by gravimetric vapor sorption (GVS); format: physicochemical
From the text: Mass increase of a sample as obtained according to Example 1 in the first cycle from 40% r.h. to 80% r.h. corresponds to 0.4%. At 95% r.h. 2.2% moisture were taken up in a reversible way without hysteresis upon drying.

[12] = Storage of Form A crystals at room temperature (XRPD and HPLC control); format: physicochemical; details: 20-25° C., 92% relative humidity
Method: All XRPD patterns for the solid forms described herein have been obtained as described hereafter. X-ray powder diffraction patterns were collected on a Bruker D8 Advance X-ray diffractometer equipped with a Lynxeye detector operated with CuKα-radiation in reflection mode (coupled two Theta/Theta). Typically, the X-ray tube was run at of 40 kV/40 mA. A step size of 0.02° (2θ) and a step time of 76.8 sec over a scanning range of 3-50° in 2θ were applied. The divergence slit was set to fixed 0.3. Powders were slightly pressed into a silicon single crystal sample holder with depth of 0.5 mm and samples were rotated in their own plane during the measurement. Diffraction data are reported using combined Cu Kα1 and Kα2 radiation, without Kα2 stripping. The accuracy of the 2θ values as provided herein is in the range of +/−0.1-0.2° as it is generally the case for conventionally recorded X-ray powder diffraction patterns. A sample of Form A crystals of the COMPOUND (as obtained according to Example 1 above) has been stored at a temperature of 20-25° C. at 92% relative humidity for 2 months. […] The same result was obtained after storage for 8 weeks under the above conditions.

[13] = test system: patients with rHT; details: 14 week phase 3 trial, versus 12% in each of the other groups; cited from earlier work
[14] = chronic oral administration, DOCA-salt rats
[15] = oral, 1, 10 and 100 mg/kg/day for 4 weeks

Compound: NS(=O)(=O)Nc1ncnc(OCCOc2ncc(Br)cn2)c1-c1ccc(Br)cc1 [ACT-132577, {5-(4-bromo-phenyl)-6-[2-(5-bromo-pyrimidin-2-yloxy)-ethoxy]-pyrimidin-4-yl}-sulfamide]
- Heart rate (HR) [1]: not affected
- MAP decrease (maximal MAP decrease observed over 6 consecutive hours) ([1]; 10 mg/kg, mean±SEM): 29±6 mm Hg
- Heart rate (HR) [2]: not affected
- MAP decrease (maximal MAP decrease observed over 6 consecutive hours) ([2]; 100 mg/kg, mean±SEM): 18±4 mm Hg
- Clearance in vivo [3]: much shorter
- Half-life in vivo [3]: much longer
- Further decrease of blood pressure (MAP) on top of canagliflozin ([4]; ACT-132577 30 mg/kg/day for 3 days after 12 days canagliflozin 30 mg/kg/day): −14±1 mmHg
- Further decrease of blood pressure (MAP) on top of empagliflozin ([4]; ACT-132577 30 mg/kg/day for 3 days after 12 days empagliflozin 30 mg/kg/day): −18±3 mmHg
- Decrease in blood pressure (MAP) on top of vehicle, without canagliflozin ([4]; ACT-132577 30 mg/kg/day on top of vehicle (canagliflozin comparison)): −16±2 mmHg
- Decrease in blood pressure (MAP) on top of vehicle, without empagliflozin ([4]; ACT-132577 30 mg/kg/day on top of vehicle (empagliflozin comparison)): −14±2 mmHg
- Heart rate (HR) [5]: not affected
- MAP decrease (maximal MAP decrease observed over 6 consecutive hours) ([5]; 10 mg/kg, mean±SEM): 19±4 mm Hg
- Blood pressure when added on top of Exforge HCT [6]: further reduced blood pressure
- Blood pressure reduction compared with spironolactone, on top of Exforge HCT ([6]; aprocitentan 10 mg/kg vs spironolactone 300 mg/kg): greater blood pressure reduction than spironolactone
- Blood pressure when added on top of Exforge HCT [7]: further reduced blood pressure
- Blood pressure reduction compared with spironolactone, on top of Exforge HCT ([7]; aprocitentan 100 mg/kg vs spironolactone 300 mg/kg): greater blood pressure reduction than spironolactone
- Haematocrit (Hct), marker of fluid retention [8]: did not impact
- Left ventricular hypertrophy [9, 14]: tended to decrease
- Plasma concentrations of N-terminal pro-brain natriuretic peptide (NTproBNP) [9, 14]: dose-dependent decrease
- Renal blood flow [9, 14]: dose-dependently increased
- Renal vascular resistance [9, 14]: decreased
- DOCA-salt-induced increase in MAP [9, 15]: dose-dependently attenuated
- Heart rate (HR) [9, 15]: without changing HR

Compound: COc1ccccc1Oc1c(NS(=O)(=O)c2ccc(C)cn2)nc(-c2ccncc2)nc1OC [Avosentan, avosentan]
- Albumin-to-creatinine ratio (ACR) [10]: significantly reduced

Compound: NS(=O)(=O)Nc1ncnc(OCCOc2ncc(Br)cn2)c1-c1ccc(Br)cc1 [Form A, {5-(4-bromo-phenyl)-6-[2-(5-bromo-pyrimidin-2-yloxy)-ethoxy]-pyrimidin-4-yl}-sulfamide]
- Moisture taken up ([11]; at 95% r.h., reversible, without hysteresis upon drying): 2.2%
- Mass increase ([11]; first cycle from 40% r.h. to 80% r.h.): 0.4%
- Hygroscopicity (GVS) ([11]; sample as obtained according to Example 1): slightly hygroscopic
- X-ray powder diffraction of the sample after storage ([12]; 2 months): still consisting only in Form A crystals
- HPLC control after storage (change in peak area %, degradation) ([12]; 8 weeks): no significant degradation

Compound: COc1cc(OC)nc(O[C@H](C(=O)O)C(OC)(c2ccccc2)c2ccccc2)n1 [darusentan]
- Fluid retention/edema (most frequent adverse event) [13]: 28%

Compound: OC[C@H]1O[C@@H](c2ccc(Cl)c(Cc3ccc(O[C@H]4CCOC4)cc3)c2)[C@H](O)[C@@H](O)[C@@H]1O [empagliflozin, reference compound]
- Maximal effect on MAP of SGLT2 inhibitor alone [4]: −13±3 mmHg

Compound: CC(=O)S[C@@H]1CC2=CC(=O)CC[C@]2(C)[C@H]2CC[C@@]3(C)[C@@H](CC[C@@]34CCC(=O)O4)[C@H]12 [spironolactone, reference compound]
- Blood pressure when added on top of Exforge HCT [6]: further reduced blood pressure
- Blood pressure when added on top of Exforge HCT [7]: further reduced blood pressure

Compound: canagliflozin [reference compound]
- Maximal effect on MAP of SGLT2 inhibitor alone [4]: −9±1 mmHg
